From patent US20140057895A1, “INDAZOLE- AND PYRROLOPYRIDINE-DERIVATIVE AND PHARMACEUTICAL USE THEREOF” (priority 2011, published 2014)
Structures can show the parent of a compound that is named as a salt. Where two headings read alike, the source gives them in different places.

How the values were obtained:
human 5-HT4b receptor = target: T1, human 5-HT4b receptor (Homo sapiens, UniProt Q13639); experiment: Test Example 4: Serotonin 4 (5-HT4) receptor agonist activity assay, cAMP HTRF in CHO cells (Table 100); type: cell-based; settings: mean value; for Emax: CHO, 0.25 h, intrinsic activity, maximal activity of 5-HT defined as 100%, read-out: IA (%); for EC50: concentration showing 50% of IA
T1 construct: expressed in transfected cells; host or cells: CHO cells (G418 selection)
Procedure: The cAMP measurement test used herein was carried out by using CISBIO HTRF (trademark) cAMP Hirange kit according to the manufacturer's instructions attached therewith.
CHO cells expressing human 5-HT4b receptor were incubated in Medium 1 [DMEM/1% NEAA, 1% penicillin/streptomycin (P/S), 0.2 mg/mL GENETICIN (G418), 10% FBS] at 37° C. under 5% CO2 condition. Then, the cells were put into Medium 2 (DMEM/10000 cut FBS, G-418, P/S, NEAA) for 1 to 2 hours, and collected by treating with trypsin containing EDTA. The collected cells were suspended in Assay Buffer 1 [100 mM Hanks/HEPES buffer (pH 7.4)], the suspended cells were mixed with the testing compound on 384-well plates, and the cells were incubated at 31° C. for 15 minutes. To the cells were added cAMP-cryptate solution and cAMP-d2 solution, and they were incubated at room temperature for 1 hour. Then, time-resolved fluorescence was measured by En Vision (excitation wavelength: 330 nm, fluorescence wavelength: 620/665 nm).
An intrinsic activity of the compound [IA (%)] and a concentration showing 50% of IA [EC50 (nM)] were calculated from the obtained results. In particular, the intrinsic activity (IA) was calculated on the basis of the maximal activity of 5-HT (measured from 10^−11 M to 10^−7 M) defined as 100%.
In the following table, the compounds used in the test are shown in numbers which correspond to the Example numbers above where the preparations of the compounds are described.

5-HT4 receptor = target: T2, 5-HT4 receptor (Cavia porcellus, UniProt O70528); experiment: Test Example 3: Guinea pig 5-HT4 receptor binding assay, [3H]-GR113808, striatum membranes (Table 98)
T2 construct: striatum was isolated which was cryopreserved at −80° C. until use; from tissue; host or cells: guinea pig (Slc-Hartley) striatum membranes
Procedure: The guinea pig 5-HT4 receptor binding assay and preparations of receptor membrane preparations herein were carried out according to a method of Grossman et al. [see, British J. Pharmacol., (1993) 109, 618].
Slc-Hartley guinea pigs (body weight 300 g to 400 g) were decapitated to remove brain rapidly, and striatum was isolated which was cryopreserved at −80° C. until use. To the obtained tissues were added fifteen fold of Hepes buffer (50 mM, pH 7.4, 4° C.), and the mixture was homogenized by Teflon (trademark) homogenizer and centrifuged at 48,000×g (4° C.) for 15 minutes. To the resulting precipitate was added Hepes buffer (1 ml) to 30 mg by wet weight of tissues, and the mixture was suspended to give receptor membrane preparations.
To an assay tube were added 0.1 nM [^3H]-GR113808 {chemical name: [1-[2-(methylsulfonylamino) ethyl]-4-piperidinyl]methyl 1-methylindole-3-carboxylate}, receptor membrane preparations, and Hepes buffer (50 mM, pH 7.4, 4° C., 1 ml) containing test compounds or 30 μM serotonin; and the mixture was incubated at 37° C. for 30 minutes. On quenching the reaction, the mixture was rapidly filtered on whatman GF/B filter, which was presoaked in 0.1% polyethyleneimine for 1 hour, by using Brandel cell Harvester, and washed with ice-cooled 50 mM Tris-HCl (pH 7.7, 4 ml) three times. To the filter after filtration was added a liquid scintillator (Ecoscint), and then a radioactivity was determined by a liquid scintillation counter.
50% Inhibition concentrations (IC50) were determined from inhibition rates of test compounds to specific bindings which were obtained by subtracting nonspecific bindings from total binding amounts of [^3H]-GR113808. […]

[1] = Guinea pig 5-HT4 receptor binding assay, [3H]-GR113808, striatum membranes, mean value of each group, read-out: IC50

T2 sequence (O70528 whole entry): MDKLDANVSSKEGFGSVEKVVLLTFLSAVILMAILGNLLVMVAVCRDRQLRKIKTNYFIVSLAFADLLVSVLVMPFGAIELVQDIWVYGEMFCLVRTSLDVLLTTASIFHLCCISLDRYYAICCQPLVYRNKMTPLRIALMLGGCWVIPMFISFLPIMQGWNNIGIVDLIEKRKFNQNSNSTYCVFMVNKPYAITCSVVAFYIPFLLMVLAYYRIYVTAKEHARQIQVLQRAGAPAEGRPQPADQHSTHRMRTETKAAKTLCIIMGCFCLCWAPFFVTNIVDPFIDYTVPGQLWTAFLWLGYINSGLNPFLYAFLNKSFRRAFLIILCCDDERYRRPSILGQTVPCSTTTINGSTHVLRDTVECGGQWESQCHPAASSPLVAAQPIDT
T1 sequence (Q13639 whole entry): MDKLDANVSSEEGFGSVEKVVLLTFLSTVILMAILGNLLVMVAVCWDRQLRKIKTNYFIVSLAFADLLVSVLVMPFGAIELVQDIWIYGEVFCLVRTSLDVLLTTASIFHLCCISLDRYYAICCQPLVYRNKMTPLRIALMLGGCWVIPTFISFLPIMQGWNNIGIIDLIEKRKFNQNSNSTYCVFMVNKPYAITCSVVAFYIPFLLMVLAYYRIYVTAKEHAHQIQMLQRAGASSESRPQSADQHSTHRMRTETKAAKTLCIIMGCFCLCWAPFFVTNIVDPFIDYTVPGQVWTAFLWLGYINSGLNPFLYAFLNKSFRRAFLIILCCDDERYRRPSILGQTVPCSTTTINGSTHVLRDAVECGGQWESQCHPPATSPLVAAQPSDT

SMILES | Emax (human 5-HT4b receptor) [%] | EC50 (human 5-HT4b receptor) [nM] | IC50 (5-HT4 receptor; [1]) [nM] | IC50 (5-HT4 receptor) [nM]
CCc1nn(-c2noc(C3CCN(CC4CCN(C(C)=O)CC4)CC3)n2)c2c(F)c(F)ccc12 [Example 478, 1-[4-({4-[3-(3-ethyl-6,7-difluoro-1H-indazol-1-yl)-1,2,4-oxadiazol-5-yl]piperidin-1-yl}methyl)piperidin-1-yl]ethanone trifluoroacetate] | 68.7 | 32.4 | < 20 | –
CC(=O)N1CC(CN2CCC(c3nc(-n4nc(C(C)C)c5ccccc54)no3)CC2)C1 [Example 467, 1-{3-[(4-{3-[3-(propan-2-yl)-1H-indazol-1-yl]-1,2,4-oxadiazol-5-yl}piperidin-1-yl)methyl]azetidin-1-yl}ethanone trifluoroacetate] | 72.5 | 6.9 | 81.1 | –
CCc1nn(-c2noc(C3CCN(C[C@@H]4CCN(C(=O)COC)C4)CC3)n2)c2c(F)cccc12 [Example 202, 1-[(3S)-3-({4-[3-(3-ethyl-7-fluoro-1H-indazol-1-yl)-1,2,4-oxadiazol-5-yl]piperidin-1-yl}methyl)pyrrolidin-1-yl]-2-methoxyethanone] | 39 | 5.8 | < 20 | –
CC(=O)N1CCC(N2CCC(c3nc(-n4nc(C(C)C)c5ccccc54)no3)CC2)CC1 [Example 458, 1-(4-{3-[3-(propan-2-yl)-1H-indazol-1-yl]-1,2,4-oxadiazol-5-yl}-1,4′-bipiperidin-1′-yl)ethanone trifluoroacetate] | 85.4 | 2.7 | 66 | –
CCc1nn(-c2noc(C3CCN(C[C@H]4CCN(C(=O)COC)C4)CC3)n2)c2c(F)cccc12 [Example 210, 1-[(3R)-3-({4-[3-(3-ethyl-7-fluoro-1H-indazol-1-yl)-1,2,4-oxadiazol-5-yl]piperidin-1-yl}methyl)pyrrolidin-1-yl]-2-methoxyethanone hydrochloride] | 68.6 | 5 | < 20 | –
CCc1nn(-c2noc(C3CCN(CC4CCN(C(=O)COC)CC4)CC3)n2)c2c(F)c(F)ccc12 [Example 477, 1-[4-({4-[3-(3-ethyl-6,7-difluoro-1H-indazol-1-yl)-1,2,4-oxadiazol-5-yl]piperidin-1-yl}methyl)piperidin-1-yl]-2-methoxyethanone trifluoroacetate] | 65.5 | 11.4 | < 20 | –
CC(C)c1nn(-c2noc(C3CCN(C(C)(C)CO)CC3)n2)c2c(F)cccc12 [Example 402, 2-(4-{3-[7-fluoro-3-(propan-2-yl)-1-indazol-1-yl]-1,2,4-oxadiazol-5-yl}piperidin-1-yl)-2-methylpropan-1-ol] | 106 | 1.8 | < 20 | –
CC(C)c1nn(-c2noc(C3CCN([C@H]4C[C@H]5CC[C@@H](C4)N5C(=O)CO)CC3)n2)c2c(F)cccc12 [Example 532, 1-[(3-endo)-3-(4-{3-[7-fluoro-3-(propan-2-yl)-1H-indazol-1-yl]-1,2,4-oxadiazol-5-yl}piperidin-1-yl)-8-azabicyclo[3.2.1]oct-8-yl]-2-hydroxyethanone] | 99 | 5 | – | < 20
COCC(=O)N1CC(CN2CCC(c3nc(-n4nc(C(C)C)c5ccc(F)c(F)c54)no3)CC2)C1 [Example 473, 1-{3-[(4-{3-[6,7-difluoro-3-(propan-2-yl)-1H-indazol-1-yl]-1,2,4-oxadiazol-5-yl}piperidin-1-yl)methyl]azetidin-1-yl}-2-methoxyethanone trifluoroacetate] | 58.5 | 23.1 | 23.8 | –
CCc1nn(-c2noc(C3CCN(C(C)C)CC3)n2)c2c(F)c(F)ccc12 [Example 445, 3-ethyl-6,7-difluoro-1-{5-[1-(propan-2-yl)piperidin-4-yl]-1,2,4-oxadiazol-3-yl}-1H-indazole trifluoroacetate] | 52.1 | 13.2 | < 20 | –
COCC(=O)N1CCC(CN2CCC(c3nc(-n4nc(C(C)C)c5ccc(F)c(F)c54)no3)CC2)CC1 [Example 481, 1-{4-[(4-{3-[6,7-difluoro-3-(propan-2-yl)-1H-indazol-1-yl]-1,2,4-oxadiazol-5-yl}piperidin-1-yl)methyl]piperidin-1-yl}-2-methoxyethanone trifluoroacetate] | 73.8 | 7.1 | < 20 | –
CC(=O)N1CC(CN2CCC(c3nc(-n4nc(C(C)C)c5ccc(F)c(F)c54)no3)CC2)C1 [Example 472, 1-{3-[(4-{3-[6,7-difluoro-3-(propan-2-yl)-1H-indazol-1-yl]-1,2,4-oxadiazol-5-yl}piperidin-1-yl)methyl]azetidin-1-yl}ethanone trifluoroacetate] | 54.3 | 47.2 | 29.7 | –
COc1ccc(F)c2c1c(C(C)C)nn2-c1noc(C2CCN(C3CCN(C(C)=O)CC3)CC2)n1 [Example 405, 1-(4-{3-[7-fluoro-4-methoxy-3-(propan-2-yl)-1H-indazol-1-yl]-1,2,4-oxadiazol-5-yl}-1,4′-bipiperidin-1′-yl)ethanone] | 21.6 | 34.2 | 65.4 | –
CC(C)c1nn(-c2noc(C3CCN(C4CCC4)C3)n2)c2c(F)cccc12 (stereo not drawn) [Example 455, 1-[5-(1-cyclobutylpyrrolidin-3-yl)-1,2,4-oxadiazol-3-yl]-7-fluoro-3-(propan-2-yl)-1H-indazole] | 99 | 28.1 | < 20 | –
CCc1nn(-c2noc(C3CCN(CC4CN(C(=O)COC)C4)CC3)n2)c2c(F)c(F)ccc12 [Example 469, 1-[3-({4-[3-(3-ethyl-6,7-difluoro-1H-indazol-1-yl)-1,2,4-oxadiazol-5-yl]piperidin-1-yl}methyl)azetidin-1-yl]-2-methoxyethanone trifluoroacetate] | 68.8 | 5.3 | 20.4 | –
CC(C)c1nn(-c2noc(C3CCN(C4CCN(C(=O)CO)CC4)CC3)n2)c2c(F)c(F)ccc12 [Example 520, 1-(4-{3-[6,7-difluoro-3-(propan-2-yl)-1H-indazol-1-yl]-1,2,4-oxadiazol-5-yl}-1,4′-bipiperidin-1′-yl)-2-hydroxyethanone] | 82.9 | 17.6 | < 20 | –
CCc1nn(-c2noc(C3CCN(C4CCOCC4)CC3)n2)c2c(F)c(F)ccc12 [Example 448, 3-ethyl-6,7-difluoro-1-{5-[1-(tetrahydro-2H-pyran-4-yl)piperidin-4-yl]-1,2,4-oxadiazol-3-yl}-1H-indazole trifluoroacetate] | 57.5 | 8.9 | < 20 | –
CCc1nn(-c2noc(C3CCN(C[C@H]4CCN(C(C)=O)C4)CC3)n2)c2c(F)cccc12 [Example 209, 1-[(3R)-3-({4-[3-(3-ethyl-7-fluoro-1H-indazol-1-yl)-1,2,4-oxadiazol-5-yl]piperidin-1-yl}methyl)pyrrolidin-1-yl]ethanone hydrochloride] | 79.1 | 3.7 | < 20 | –
CC(=O)N1CCC(CN2CCC(c3nc(-n4nc(C(C)C)c5ccccc54)no3)CC2)CC1 [Example 475, 1-{4-[(4-{3-[3-(propan-2-yl)-1H-indazol-1-yl]-1,2,4-oxadiazol-5-yl}piperidin-1-yl)methyl]piperidin-1-yl}ethanone trifluoroacetate] | 61 | 13.6 | 67.9 | –
